# Assay results published in patent US20260083677A1, “ACTIVE INGREDIENT CONTAINING STABILISED SOLID MEDICINAL FORMS AND METHODS FOR THE PRODUCTION THEREOF” (ASTELLAS PHARMA INC., priority 2006, published 2026).
# How the values were obtained:
# Assay type in all cases: physicochemical
# [1] = relative equilibrium moisture content in sealed measuring cell (HygroLab, AWVC cell); settings: for equilibrium moisture: substances dried at 130° C. for 5 hours (sorbitol: 70° C.)
# Procedure: In connection with the present invention it is, however, very important to have a method furnishing information on the bonding mechanism of water and the strength of the water bond. For this purpose, the so-called “relative equilibrium moisture content” (hereinafter also abbreviated as “equilibrium moisture content”) is measured which forms on the sample in a fully sealed measuring cell at a certain temperature. It is also referred to as equilibrium activity or water activity. The water activity describes the bond strength of water to the active ingredient and/or the individual components of the active ingredient mixture. The measured value for the water activity and/or for the equilibrium moisture (Equilibrium Relative Humidity) has a decisive influence on the chemical stability of a moisture-sensitive active ingredient which is embedded in a solid form, such as granules, a capsule or tablet.
# The equilibrium moisture content is the value of the relative humidity in which a hygroscopic product can be stored without a net moisture exchange taking place between the product and its environment. Thus, if a solid form has an equilibrium moisture content of 10% and is stored at a relative humidity of 15%, it absorbs water from its environment, if the relative moisture of the environment is below 10%, the solid form releases water to its environment and becomes even drier.
# Unless otherwise specified, the equilibrium moisture content is determined as follows in a thermostated small, tightly sealed measuring cell having a volume of about 50 ml. In the upper part of this measuring cell there is a sensor which can measure the relative moisture content resulting from the evaporation of water from the sample to be measured (the device HygroLab having the AWVC measuring cell of Rotronic company, CH 8303 Bassersdorf, Switzerland, is used) The device is officially calibrated and the measuring inaccuracy is no more than +1% relative humidity or +0.3° C. The measuring accuracy can be repeated at any time with standardized salt solutions as known to the person skilled in the art. The measurement takes place at 25° C.
# [2] = drying loss determination on a drying balance; settings: for drying loss at 130° C./30 min: substances dried at 130° C. for 5 hours (sorbitol: 70° C.)
# Procedure: drying loss in %=mass of the water in the sample/total mass of the sample×100
# In order to determine the drying loss of a sample (e.g. a solid medicinal form), the sample is spread over a so-called drying balance and (e.g. by an accurately working infrared radiator) adjusted to the desired temperature, e.g. of 105° C. After a certain time (e.g. after 20 or 30 minutes), the drying loss due to the evaporation of water is directly read off the balance in percent. Unless otherwise specified in this application, the expression “drying loss” refers to the drying loss determined under the conditions of 105° C./30 min. A suitable device for measuring of the drying loss is the Moisture Analyzer HR83 of Mettler-Toledo company (CH-8606 Greifensee, Switzerland). The device or the drying balance is preferably used in a closed interior having an ambient temperature of 20° C. and 20% relative humidity.
# [3] = removal of water of crystallization from amoxicilline trihydrate by a drying agent in a tightly sealing glass vessel
# Procedure: In a tightly sealing glass vessel, two Arcellas having 3.5 g trimagnesium dicitrate, dried at 130° C., or having 1.264 g amoxicilline trihydrate (water content 13.1%) are placed side by side and stored at 25° C. After 14 days, the weight of amoxicilline is only 1,105 g whereas the weight of trimagnesium dicitrate is 3.66 g. The amoxicilline released 12.6% water of crystallization which was absorbed by the drying agent. The new drying agent is active such that it virtually split off the entire water of crystallization of amoxicilline (theoretical value: 12.9%).
# If this experiment is repeated with the known drying agent silica gel, the antibiotic only loses 0.1% weight after 25 days. This means that the dried trimagnesium dicitrate according to the invention represents an extremely potent drying agent.
# Under precisely equal test conditions, the amoxicilline only loses 9.0% with calcium chloride dried at 130° C. after 26 days/25° C.
# [4] = weight increase on storage at 25° C./15% relative humidity over 27 days; settings: substances dried at 130° C. for 5 hours (sorbitol: 70° C.)
# Procedure: The substances were dried at 130° C. for 5 hours (sorbitol: 70° C.) and the drying loss was determined. Then, the weight increase of the individual substances was determined at 25° C./15% relative humidity over 27 days.
# [5] = measuring cell thermostated to 25° C.
# [6] = after drying at 130° C. for several hours
# [7] = measured at 150° C./30 min, after drying at 130° C. for several hours
SMILES,"equilibrium moisture content [1, 5]","equilibrium moisture content [1, 6]",equilibrium moisture [1],weight increase (%) with storage at 15% relative humidity/25° C. [4],"drying loss [2, 7]",drying loss at 130° C./30 min [2],further results
"O=S(=O)([O-])[O-].[Na+].[Na+] [Sodium sulfate, reference compound]",32.7%,,,,,,drying loss at 130° C. ([2]; testing period 30 min): 0.06%
"CC1(C)S[C@@H]2[C@H](NC(=O)[C@H](N)c3ccc(O)cc3)C(=O)N2[C@H]1C(=O)O [amoxicilline, amoxicilline trihydrate]",,,,,,,"weight of amoxicilline after storage ([3]; 1.264 g at start, beside 3.5 g dried trimagnesium dicitrate, 14 days, 25° C.): 1,105 g; weight loss ([3]; drying agent calcium chloride dried at 130° C., after 26 days/25° C.): 9.0%; weight loss ([3]; drying agent silica gel, after 25 days): 0.1%; water of crystallization released ([3]; drying agent trimagnesium dicitrate dried at 130° C., 14 days, 25° C.): 12.6%"
[Ca+2].[Cl-].[Cl-] [calcium chloride],,< 0.5%,< 1%,45.9%,3.4%,0.02,
O=C(O)CC(O)(CC(=O)O)C(=O)O [citric acid],63%,,,,,,drying loss ([2]; measured at 70° C./30 min): 0.2%
OC[C@@H](O)[C@@H](O)[C@H](O)[C@@H](O)CO [sorbitol],,,9%,0.1%,,0.1,
O=C([O-])CC(O)(CC(=O)[O-])C(=O)[O-].O=C([O-])CC(O)(CC(=O)[O-])C(=O)[O-].[Mg+2].[Mg+2].[Mg+2] [trimagnesium dicitrate],,< 0.5%,< 1%,8.6%,1.6%,0.2,"equilibrium moisture content ([1]; after drying at 130° C. for several hours, at 25° C.): 0.6%; weight of trimagnesium dicitrate after storage ([3]; 3.5 g at start, dried at 130° C., beside amoxicilline trihydrate, 14 days, 25° C.): 3.66 g"
